According to the NIST ThermoML archive (doi:10.1016/j.jct.2018.07.029):
Values joined by “and” are separate entries in the source; they are usually repeats but may differ in a detail not shown here. Equal entries are not always repeated.

Conditions: Liquid, Transpiration method

CCOC(=O)C(C)O (racemic) [DL-ethyl lactate]
Conditions	vapor or sublimation pressure
274.6 K	0.0432 kPa
276.6 K	0.0506 kPa
279.6 K	0.0659 kPa
281.4 K	0.0743 kPa
283.6 K	0.0901 kPa
284.6 K	0.095 kPa
285.8 K	0.1032 kPa
287.6 K	0.1266 kPa and 0.1265 kPa
288.4 K	0.1302 kPa
290.2 K	0.1492 kPa
290.3 K	0.1456 kPa
291.1 K	0.162 kPa
293.5 K	0.1923 kPa
296.4 K	0.2396 kPa
298.5 K	0.2828 kPa
301.5 K	0.3655 kPa
302.5 K	0.3751 kPa
304.5 K	0.4491 kPa
305.3 K	0.4793 kPa
307.2 K	0.5251 kPa
308.2 K	0.5766 kPa
310.1 K	0.6332 kPa and 0.6327 kPa
311.3 K	0.6892 kPa

CCCCOC(=O)C(C)O (stereo not given) [butyl 2-hydroxypropanoate]
Conditions	vapor or sublimation pressure [kPa]
273.6 K	0.00576
274.1 K	0.00627
276.6 K	0.00823
277.2 K	0.00868
279.2 K	0.00996
280.7 K	0.0112
281.8 K	0.0133
283.2 K	0.0141
285.4 K	0.0178
287.3 K	0.0215
290.3 K	0.0272
291.8 K	0.0324
293.3 K	0.0375
296.2 K	0.0442
299.2 K	0.0601
302.2 K	0.0712
305.1 K	0.0952
308.1 K	0.1148
308.5 K	0.1253
311 K	0.1483
313 K	0.1639
314.5 K	0.1944
317 K	0.2271
318.9 K	0.2521
322.9 K	0.3526

CCOC(=O)[C@@H](C)O [ethyl D-lactate]
Conditions	vapor or sublimation pressure
274.4 K	0.0419 kPa
276.4 K	0.0495 kPa
278.2 K	0.0568 kPa
280.3 K	0.0665 kPa
282.3 K	0.0765 kPa
283.2 K	0.0834 kPa
285.4 K	0.0995 kPa
286.2 K	0.1081 kPa
289.2 K	0.1358 kPa
291.3 K	0.1583 kPa
293.2 K	0.1868 kPa
295.2 K	0.2114 kPa
297.3 K	0.2551 kPa
298.4 K	0.2762 kPa and 0.2718 kPa
299.2 K	0.2886 kPa
301.3 K	0.3466 kPa
303.2 K	0.3937 kPa
305.2 K	0.4603 kPa
306.2 K	0.479 kPa
307.3 K	0.5225 kPa
308.2 K	0.5581 kPa
308.3 K	0.5768 kPa
310.3 K	0.6462 kPa
311.3 K	0.7011 kPa
313.2 K	0.7624 kPa
314.2 K	0.8127 kPa
316.3 K	0.9517 kPa
318.2 K	1.048 kPa

CC(C)OC(=O)[C@H](C)O [isopropyl (S)-2-hydroxypropionate]
Conditions	vapor or sublimation pressure [kPa]
283.4 K	0.0862
288.3 K	0.1239
293.3 K	0.1774
298.3 K	0.2401
303.2 K	0.3239
306.8 K	0.4055

CCCCCOC(=O)C(C)O (stereo not given) [pentyl 2-hydroxypropanoate]
Conditions	vapor or sublimation pressure [kPa]
303.4 K	0.026
305.3 K	0.0299
307.3 K	0.038
309.3 K	0.0421
311.4 K	0.0517
313.3 K	0.0565
315.4 K	0.0714
317.4 K	0.0833
319.4 K	0.0946
321.4 K	0.1069
323.4 K	0.1269
325.4 K	0.1418
327.4 K	0.1665
329.4 K	0.1855
331.3 K	0.2174
333.3 K	0.2476
335.3 K	0.2794
337.3 K	0.3145
339.3 K	0.3534
341.3 K	0.4164
343.2 K	0.4684

CCCOC(=O)C(C)O (stereo not given) [propyl 2-hydroxypropanoate]
Conditions	vapor or sublimation pressure
273.5 K	0.0152 kPa
274.6 K	0.0171 kPa
276.2 K	0.019 kPa
277.7 K	0.0222 kPa
279.9 K	0.0274 kPa
282.1 K	0.0332 kPa
283.3 K	0.0359 kPa
286.2 K	0.0489 kPa and 0.048 kPa
287.8 K	0.055 kPa
290.3 K	0.0664 kPa
292.3 K	0.0793 kPa
294.3 K	0.09 kPa
298.2 K	0.1194 kPa
299.2 K	0.1376 kPa and 0.1392 kPa
301.2 K	0.1565 kPa
301.4 K	0.1625 kPa
303.3 K	0.1866 kPa
304.2 K	0.1915 kPa
305.3 K	0.2068 kPa
307.9 K	0.268 kPa
308.1 K	0.256 kPa
310.3 K	0.3053 kPa
312.1 K	0.3377 kPa
313.4 K	0.3713 kPa
313.6 K	0.3614 kPa
315.4 K	0.4264 kPa
316 K	0.4342 kPa
317 K	0.4541 kPa
317.4 K	0.4789 kPa
319.4 K	0.5467 kPa
320 K	0.5661 kPa
321.4 K	0.6113 kPa
323 K	0.6633 kPa
323.4 K	0.7043 kPa
325.4 K	0.8342 kPa
327.3 K	0.9235 kPa
330.3 K	1.079 kPa
